The source of these data is publication PMC12881681 (Molecular Pharmacology, 2025).

Assay type in all cases: biochemical
Common to all, as to set-up: Enzymatic reaction was initiated by adding human liver cytosol (100 μg); tissue Corning, Inc. (Gentest brand) 452115; host or cells: human liver cytosol, pool of 150 donors

The target of test [1] is T1, human liver cytosolic AOX1 (Homo sapiens, UniProt Q06278).
T1 sequence (Q06278 1-1338): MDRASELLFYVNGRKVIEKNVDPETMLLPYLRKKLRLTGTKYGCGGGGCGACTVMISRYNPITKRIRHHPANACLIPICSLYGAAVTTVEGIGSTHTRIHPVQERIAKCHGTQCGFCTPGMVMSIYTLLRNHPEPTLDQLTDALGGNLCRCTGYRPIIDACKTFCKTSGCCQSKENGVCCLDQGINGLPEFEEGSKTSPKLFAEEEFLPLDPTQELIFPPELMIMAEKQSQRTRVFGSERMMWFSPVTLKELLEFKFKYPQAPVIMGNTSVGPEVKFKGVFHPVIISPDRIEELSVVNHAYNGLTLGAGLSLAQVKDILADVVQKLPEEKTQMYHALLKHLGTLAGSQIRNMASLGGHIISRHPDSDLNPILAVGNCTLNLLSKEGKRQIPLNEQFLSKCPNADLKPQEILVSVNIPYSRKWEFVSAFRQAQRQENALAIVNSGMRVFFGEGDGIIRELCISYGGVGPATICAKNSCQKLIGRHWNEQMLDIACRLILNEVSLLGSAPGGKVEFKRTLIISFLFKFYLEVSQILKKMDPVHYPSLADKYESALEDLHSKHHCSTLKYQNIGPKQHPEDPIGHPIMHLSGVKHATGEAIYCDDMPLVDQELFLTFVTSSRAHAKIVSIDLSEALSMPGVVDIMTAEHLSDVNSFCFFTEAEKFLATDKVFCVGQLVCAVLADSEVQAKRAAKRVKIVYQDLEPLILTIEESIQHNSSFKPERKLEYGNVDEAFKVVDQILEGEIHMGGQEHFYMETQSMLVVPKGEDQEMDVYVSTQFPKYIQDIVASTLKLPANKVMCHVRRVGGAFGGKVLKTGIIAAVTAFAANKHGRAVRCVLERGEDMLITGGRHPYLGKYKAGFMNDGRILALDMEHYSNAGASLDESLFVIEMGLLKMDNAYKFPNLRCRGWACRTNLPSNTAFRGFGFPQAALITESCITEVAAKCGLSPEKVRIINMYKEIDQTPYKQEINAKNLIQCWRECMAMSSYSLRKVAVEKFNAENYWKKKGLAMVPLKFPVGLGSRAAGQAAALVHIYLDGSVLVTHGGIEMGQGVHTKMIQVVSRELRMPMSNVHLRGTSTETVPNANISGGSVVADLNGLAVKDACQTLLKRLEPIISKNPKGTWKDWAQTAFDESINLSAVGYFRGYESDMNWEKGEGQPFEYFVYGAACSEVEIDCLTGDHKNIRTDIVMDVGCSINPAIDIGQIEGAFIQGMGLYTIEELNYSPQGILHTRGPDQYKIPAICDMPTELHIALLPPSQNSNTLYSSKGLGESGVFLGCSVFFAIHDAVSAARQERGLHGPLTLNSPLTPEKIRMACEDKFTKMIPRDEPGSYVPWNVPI
The test can be described thus: Partition ratio determination (titration, human liver cytosol). The conditions noted are these: for Turnover Number: human liver cytosol; for Partition Ratio: turnover number minus 1; for turnover number and partition ratio, fold greater than erlotinib / partition ratio, fold greater than erlotinib: Table 1 values. The protocol:
The enzyme kinetic experiments were conducted as described above. The incubation was allowed to proceed until saturation of enzyme has been reached (6 or 18 minutes, as specified in each figure legend). Carbazeran 4-oxidation was plotted against the ratio of inactivator concentration to AOX1 protein concentration in the incubation mixture of 200 μL. The specific lot of human liver cytosol (#38292) used in this study contained 1.05 ± 0.01 pmol/μL (mean ± SD) of AOX1 protein, as assessed by capillary nanoproteomic immunoassay.[27] The turnover number was the extrapolation of the intercept of the 2 linear regression lines to the x-axis, which was determined by solving the 2 linear regression equations. The partition ratio was calculated by subtracting the turnover number by 1, assuming 1:1 stoichiometry between the inactivator and the enzyme.[29]

The target in test [2] is T1, human liver cytosolic AOX1. The test can be described thus: Effects of nucleophilic trapping agents and scavengers of reactive oxygen species on AOX1 inactivation. To be noted: inactivator 1.5 μM; for effect of catalase and superoxide dismutase on AOX1 inactivation: catalase 1000 and 2000 U, superoxide dismutase 500 and 1000 U; for effect of glutathione and N-acetylcysteine on AOX1 inactivation: glutathione or N-acetylcysteine 5 and 10 mM, 6 min. The protocol:
The control incubations were described in our previous publication.[28] Each standard incubation mixture was subjected to the same procedures as described in Enzyme Inactivation Experiments. The residual AOX1 enzyme activity was determined by the carbazeran 4-oxidation assay.

For test [3], the target named is T1, human liver cytosolic AOX1. The test can be described thus: Effects of a competing AOX1 substrate and a competitive AOX1 inhibitor on AOX1 inactivation. To be noted: human liver cytosol; for effect of O^6-benzylguanine on extent of AOX1 inactivation: O^6-benzylguanine 120, 240 (480) μM; for effect of O^6-benzylguanine on extent of AOX1 inactivation / effect of gefitinib on extent of AOX1 inactivation: carbazeran 4-oxidation; for effect of gefitinib on extent of AOX1 inactivation: gefitinib 3, 10, 30 μM. How it is done: The molar ratio of O^6-benzylguanine (120, 240, and 480 μM) to 3-vinylerlotinib (10 μM) was 12, 24, and 48, O^6-benzylguanine to 4′-methylerlotinib (3 μM) was 40, 80, and 160, and O^6-benzylguanine to 2-methylerlotinib (1 μM) was 120, 240, and 480, respectively. […] Each standard incubation mixture was subjected to the same procedures as described in Enzyme Inactivation Experiments. The residual AOX1 enzyme activity was determined by the carbazeran 4-oxidation or O^6-benzylguanine 8-oxidation assay.

In test [4] the target is T1, human liver cytosolic AOX1. The conditions noted are these: potassium ferricyanide 2 mM, 0 or 6 min preincubation. The protocol: The residual AOX1 enzyme activity was determined by the carbazeran 4-oxidation assay.
A test chemical at a concentration described above was incubated with human liver cytosol (100 μg protein) at 37 °C for 0 or 6 minutes. […] After 10-minute incubation, an aliquot (50 μL) of the […] (total volume of 200 μL) containing potassium phosphate buffer and carbazeran (15 μM), which yielded a 4-fold dilution of the secondary incubation mixture. The residual AOX1 enzyme activity was determined as described above.

For `C#Cc1cccc(Nc2ncnc3cc(OCCO)c(OCCO)cc23)c1` [O-Didesmethylerlotinib, O-didesmethylerlotinib], in test [1], the “Turnover Number” value came out at 24.6 ± 1.29 and the “Partition Ratio” value came to 23.6 ± 1.29. In addition, in test [2], the “effect of catalase and superoxide dismutase on AOX1 inactivation” value is “did not protect”; the “effect of glutathione and N-acetylcysteine on AOX1 inactivation” value is “did not reduce the inactivation”. Moreover, in test [3], the “effect of O^6-benzylguanine on extent of AOX1 inactivation” value (from here on “effect of O^6-benzylguanine”) is reported as “attenuated” and the “effect of gefitinib on extent of AOX1 inactivation” value (from here on “effect of gefitinib”) is given as “attenuated”. For the same compound, the “effect of coincubation or postincubation with potassium ferricyanide on AOX1 inactivation” value (from here on “effect of coincubation or postincubation”) in test [4] is “not increased or decreased”.
On to `C#Cc1cc(Nc2ncnc3cc(OCCOC)c(OCCOC)cc23)ccc1C` [4′-Methylerlotinib, 4′-methylerlotinib], for which, in test [1], the “turnover number and partition ratio, fold greater than erlotinib” value is 1.6 fold; the “Turnover Number” value came to 42.9 ± 4.32; the “Partition Ratio” value was 41.9 ± 4.32. Moreover, in test [3], the “effect of O^6-benzylguanine” value was “attenuated” and the “effect of gefitinib” value was “attenuated”. The “effect of coincubation or postincubation” value in test [4] is listed as “not increased or decreased”.
In the case of `C#Cc1cccc(Nc2ncnc3cc(OCCOC)c(OCCO)cc23)c1` [O-Desmethylerlotinib, O-desmethylerlotinib], in test [1], the “Turnover Number” value amounted to 35.2 ± 4.78 and the “Partition Ratio” value is 34.2 ± 4.78. Besides, in test [2], the “effect of catalase and superoxide dismutase on AOX1 inactivation” value was “did not protect”; the “effect of glutathione and N-acetylcysteine on AOX1 inactivation” value is “did not reduce the inactivation”. Moreover, in test [3], the “effect of O^6-benzylguanine” value was “attenuated” and the “effect of gefitinib” value is reported as “attenuated”. For the same compound, the “effect of coincubation or postincubation” value in test [4] was “not increased or decreased”.
As to `C=Cc1cccc(Nc2ncnc3cc(OCCOC)c(OCCOC)cc23)c1` [3-Vinylerlotinib, 3-vinylerlotinib], in test [1], the “partition ratio, fold greater than erlotinib” value came to 10 fold; the “turnover number and partition ratio, fold greater than erlotinib” value stood at 10 fold; the “Turnover Number” value is given as 271 ± 23.5∗∗∗; the “Partition Ratio” value is recorded as 270 ± 23.5∗∗∗. In addition, in test [1] (listed as 3-vinylerlotinib), the “Turnover Number” value was 271 and the “Partition Ratio” value is reported as 270. In test [3], the “effect of O^6-benzylguanine” value is listed as “attenuated” and the “effect of gefitinib” value is “attenuated”. Moreover, in test [4], the “effect of coincubation or postincubation” value is “not increased or decreased”.
For `C#Cc1cccc(Nc2ncnc3cc(OCCOC)c(OCCOC)cc23)c1` [Erlotinib], in test [1], the “Turnover Number” value is reported as 26.9 ± 1.30. Moreover, in test [2], the “effect of catalase and superoxide dismutase on AOX1 inactivation” value is on record as “did not protect”. Moreover, in test [2], the “effect of glutathione and N-acetylcysteine on AOX1 inactivation” value was “did not reduce the inactivation”. Besides, the “effect of O^6-benzylguanine” value in test [3] is reported as “attenuated”. Further, the results for the “decrease in carbazeran 4-oxidation in the presence of gefitinib” value in test [3] (inactivator 1.5 μM + 3 μM gefitinib), in test [3] (inactivator 1.5 μM + 10 μM gefitinib) and in test [3] (inactivator 1.5 μM + 30 μM gefitinib) were 73%, 55% and 47%, respectively. For the same compound, the “effect of coincubation or postincubation” value in test [4] is on record as “not increased or decreased”.
Consider `C#Cc1cccc(Nc2nc(C)nc3cc(OCCOC)c(OCCOC)cc23)c1` [2-Methylerlotinib, 2-methylerlotinib], for which, in test [1], the “partition ratio, fold greater than erlotinib” value came to 1.9 fold; the “Turnover Number” value was 49.9 ± 1.40; the “Partition Ratio” value was 48.9 ± 1.40. Besides, in test [3], the “effect of O^6-benzylguanine” value is given as “attenuated” and the “effect of gefitinib” value was “attenuated”. In addition, the “effect of coincubation or postincubation” value in test [4] is listed as “not increased or decreased”.
